{"source": "patent US20080267861A1", "about": "“Myocardial Perfusion Imaging” (CV THERAPEUTICS, INC., priority 2007, published 2008)", "key": {"[1]": {"test_system": "patients requiring pharmacologic MPI", "test": "SPECT myocardial perfusion imaging: heart-to-background ratios, image quality, perfusion defects", "format": "in vivo, human", "settings": "for heart-to-gut ratio, mean (SD) / heart-to-liver ratio, mean (SD) / heart-to-liver+gut ratio, mean (SD): 39 patients undergoing both scans, 99mTc-Sestamibi", "description": "(§1) In this multicenter study, subjects requiring pharmacologic MPI based on clinical criteria received adenosine infusion (Astellas Pharma, Inc.), 140 mcg/kg/min over 6 min in the supine position (AdenoSup), following enrollment and were then randomized (2:1) in a double-blind manner to a novel protocol (RegEx) consisting of 4 min of sub-maximal exercise (1.7 mph at 0% grade) with bolus intravenous injection of 400 mcg Regadenoson at 1.5 min and ^99mTechnetium-Sestamibi at 2 min or matching placebos (PlcEx).\nPrior to randomization, patients were stratified based on the presence of reversible perfusion defects, defined as a two or more segments with a stress score >rest score and a stress score >2 on a 5-category scale, as interpreted by a board-certified nuclear cardiologist at each site. The 5-category scale, used both for stratifying patients and for evaluation of perfusion defects on study, was as follows: 0=normal; 1=mild reduction in tracer uptake, not definitely abnormal; 2=moderate reduction in uptake, definitely abnormal; 3=severe reduction in uptake; 4=absent uptake.\n(§2) The primary objective was to assess the overall safety of Regadenoson in patients undergoing low-level stress by comparing hemodynamic, cardiac rhythm and adverse effects of the 3 protocols. In addition, patient acceptance was determined by comparing patient comfort and test protocol preference using questionnaires. Three blinded expert readers independently interpreted randomly presented perfusion scans at a nuclear core lab (Services NucMed, Montreal, Canada). Image quality was compared between AdenoSup and RegEx by computation of heart-to-liver and heart-to-gut ratios and the readers' visual assessment of overall image quality and image quality with respect to subdiaphragmatic interference specifically. A 17-segment MPI model was used by the core lab readers, to compare the extent of the perfusion defect between RegEx and AdenoSup quantitatively and also qualitatively with side-by-side visual comparison. Patients were required to abstain from methylxanthine-containing foods and beverages for 12 hours prior to receiving study drug and adenosine. The protocol was approved by an institutional review board and all patients provided written informed consent.\nNuclear imaging was performed using either a dual isotope protocol or a two-day ^99mTechnetium-Sestainibi protocol at the investigators' discretion. However, men with body weight >220 pounds and body mass index >30 kg/m2 and women with body weight >200 pounds and body mass index >30 kg/m2 were to undergo the two day protocol. The single photon emission computed tomography (SPECT) imaging was standardized for image acquisition and transmittal in accordance with the American Society of Nuclear Cardiology guidelines. The protocol required an extra ˜8 mSv radiation to the patients in the study arm, and none to the patients in the control (placebo exercise) arm.\nThe dual isotope protocol was performed over 2 separate days. On the first day, patients were to have a rest scan with ^201Thallium followed by a ^99mTechnetium-Sestamibi adenosine-supine MPI; on a subsequent day, patients underwent a ^99mTechnetium-Sestamibi study drug (i.e., regadenoson or placebo) sub-maximal treadmill exercise MPI.\nThe multi-day ^99mTechnetium-Sestamibi was performed over 3 days. On the first day, patients were to have a ^99mTechnetium-Sestamibi adenosine supine MPI or ^99mTechnetium-Sestamibi rest scan. […] The second and third days were not necessarily consecutive to the first day.\nThe stress MPI scans were to be performed 60±10 minutes after the start of adenosine or study drug.\nChanges in blood pressure, heart rate, and ECG intervals were computed over time and compared (Regadenoson vs. placebo) using repeated measures, mixed-model ANOVA. The incidence of symptomatic hypotension, systolic blood pressure decreases of >20 mm Hg, ECG abnormalities, and severe or related adverse events was compared using Fisher's exact test. […]"}, "[2]": {"test_system": "patients requiring pharmacologic MPI", "test": "Hemodynamic, cardiac rhythm and ECG effects of MPI protocols", "format": "in vivo, human", "settings": "for effects on ECG intervals: AdenoSup, RegEx and PlcEx compared; for patients with arrhythmias following both AdenoSup and RegEx / patients with arrhythmias following this protocol only: adverse events or ECG findings; for occurrences of 2nd degree or higher AV block: in vivo", "description": "as §1, §2\n(§3) Changes in blood pressure, heart rate, and ECG intervals were computed over time and compared (Regadenoson vs. placebo) using repeated measures, mixed-model ANOVA. The incidence of symptomatic hypotension, systolic blood pressure decreases of >20 mm Hg, ECG abnormalities, and severe or related adverse events was compared using Fisher's exact test. The quality of nuclear MPI scans following regadenoson and low-level exercise was compared to adenosine-supine MPI scans of the same subject using the sign test. Radiotracer target-to-background ratios were computed and compared between the two imaging regimens using the Wilcoxon signed ranks test. Semi-quantitative scoring of perfusion defects (Summed Stress Score (SSS), Summed Difference Score (SDS), etc.) was conducted using a 17-segment polar map and the quality of agreement between the two imaging regimens was assessed using […]"}, "[3]": {"test_system": "patients requiring pharmacologic MPI", "test": "Adverse events during MPI protocols", "format": "in vivo, human", "settings": "for frequency of dyspnea: 39 crossover patients", "description": "as §1, §2, §3"}, "[4]": {"test_system": "patients requiring pharmacologic MPI", "test": "Patient comfort and test protocol preference questionnaires", "format": "in vivo, human", "settings": "for tolerability: 400 mcg bolus during low-level exercise", "description": "as §2\nCohen's kappa for the categories 0-3, 4-7, 8-11, and >12 (SSS) and 0-6, 7-13, and >14 (SDS). The number of segments with reversible perfusion defects was defined as the median number across the three readers. Subject comfort and tolerability were assessed using a 4-point scale and the regimens compared using a Cochran-Mantel-Haenszel test of equality of mean scores. Data are expressed as mean (SD) unless otherwise specified. Statistical analyses were conducted using SAS version 9.1. Statistical significance was defined as a p-value of <0.05."}, "[5]": {"settings": "relative to adenosine; cited from earlier work"}, "[6]": {"settings": "AdenoSup, later randomized to RegEx (n = 39)"}}}
{"smiles": "Nc1ncnc2c1ncn2[C@@H]1O[C@H](CO)[C@@H](O)[C@H]1O", "note": "[Adenosine, adenosine, reference compound]", "values": [{"measurement": "heart-to-gut ratio, mean (SD)", "setting": "[1]", "value": "0.97 (0.34)"}, {"measurement": "heart-to-liver ratio, mean (SD)", "setting": "[1]", "value": "0.65 (0.26)"}, {"measurement": "heart-to-liver+gut ratio, mean (SD)", "setting": "[1]", "value": "0.72 (0.18)"}, {"measurement": "patients in whom reversible perfusion defects were detected", "setting": "[1]; of 39 patients", "value": 51.3, "unit": "%"}, {"measurement": "patients in whom reversible perfusion defects were detected", "setting": "[1]; out of 39 patients", "value": 20}, {"measurement": "effects on ECG intervals", "setting": "[2]", "value": "similar"}, {"measurement": "patients with arrhythmias following both AdenoSup and RegEx", "setting": "[2]", "value": 2}, {"measurement": "patients with arrhythmias following this protocol only", "setting": "[2]", "value": 3}, {"measurement": "occurrences of 2nd degree or higher AV block", "setting": "[2]", "value": "one"}, {"measurement": "peak heart rate, increase from resting baseline", "setting": "[2]; mean (SE)", "value": "+21.0 (SE 2.5) bpm"}, {"measurement": "frequency of dyspnea", "setting": "[3]", "value": 41, "unit": "%"}, {"measurement": "patients with at least one adverse event", "setting": "[3]; 62 patients dosed", "value": 95, "unit": "%"}, {"measurement": "Adverse event: Stomach Discomfort, patients", "setting": "[3]; AdenoSup, later randomized to PlcEx (n = 21)", "value": 0}, {"measurement": "Adverse event: Dizziness, patients", "setting": "[3]; [6]", "value": 0}, {"measurement": "Adverse event: Pain in Jaw, patients", "setting": "[3]; [6]", "value": 0}, {"measurement": "patients with severe adverse events", "setting": "[3]; AdenoSup: of 60 patients", "value": 4}, {"measurement": "patients with protocol-defined symptomatic hypotension", "setting": "[3]; in vivo", "value": "One"}, {"measurement": "patients with severe adverse events", "setting": "[3]; of 60 patients", "value": 6.7, "unit": "%"}]}
{"smiles": "CNC(=O)c1cnn(-c2nc(N)c3ncn([C@@H]4O[C@H](CO)[C@@H](O)[C@H]4O)c3n2)c1", "note": "[Regadenoson, (1-{9-[(4S,2R,3R,5R)-3,4-dihydroxy-5-(hydroxymethyl)oxolan-2-yl]-6-aminopurin-2-yl}pyrazol-4-yl)-N-methylcarboxamide]", "values": [{"measurement": "heart-to-gut ratio, mean (SD)", "setting": "[1]", "value": "1.1 (0.36)"}, {"measurement": "heart-to-liver ratio, mean (SD)", "setting": "[1]", "value": "0.85 (0.34)"}, {"measurement": "heart-to-liver+gut ratio, mean (SD)", "setting": "[1]", "value": "0.93 (0.26)"}, {"measurement": "image quality with respect to subdiaphragmatic interference, side-by-side RegEx vs AdenoSup", "setting": "[1]; 39 patients, blinded readers", "value": "significantly better"}, {"measurement": "overall image quality, side-by-side comparison RegEx vs AdenoSup", "setting": "[1]; 39 patients, blinded readers, listed as RegEx", "value": "significantly better overall image quality"}, {"measurement": "patients in whom reversible perfusion defects were detected", "setting": "[1]; of 39 patients", "value": 64.1, "unit": "%"}, {"measurement": "patients in whom reversible perfusion defects were detected", "setting": "[1]; out of 39 patients", "value": 25}, {"measurement": "patients reporting being very uncomfortable or extremely uncomfortable", "setting": "[4]; 4-point scale", "value": "No patients"}, {"measurement": "patients reporting the test as \"a little uncomfortable\"", "setting": "[4]; 4-point scale", "value": 41, "unit": "%"}, {"measurement": "patients reporting the test as \"comfortable\"", "setting": "[4]; 4-point scale", "value": 59, "unit": "%"}, {"measurement": "tolerability", "setting": "[4]", "value": "feasible and well tolerated"}, {"measurement": "tolerability", "setting": "[4]; listed as RegEx", "value": "well tolerated"}, {"measurement": "heart rate over the pre-exercise baseline", "setting": "[2]; 24 minutes following start of exercise, mean (SE)", "value": "+4.6 (SE 1.5) bpm"}, {"measurement": "effects on ECG intervals", "setting": "[2]", "value": "similar"}, {"measurement": "peak heart rate greater than following AdenoSup", "setting": "[2]; RegEx vs AdenoSup", "value": 21, "unit": "bpm"}, {"measurement": "peak heart rate greater than following PlcEx", "setting": "[2]; RegEx vs PlcEx", "value": 13, "unit": "bpm"}, {"measurement": "systolic blood pressure analyses (change in mean SBP, nadir SBP, decline >20 mm Hg)", "setting": "[2]; RegEx vs PlcEx and vs AdenoSup", "value": "no important differences"}, {"measurement": "patients with arrhythmias following both AdenoSup and RegEx", "setting": "[2]", "value": 2}, {"measurement": "patients with arrhythmias following this protocol only", "setting": "[2]", "value": 1}, {"measurement": "heart rate higher than the pre-exercise baseline", "setting": "[2]; by 24 minutes following the study drug bolus", "value": "< 5", "unit": "bpm"}, {"measurement": "occurrences of 2nd degree or higher AV block", "setting": "[2]", "value": "No occurrences"}, {"measurement": "peak heart rate, increase from resting baseline", "setting": "[2]; mean (SE)", "value": "41.9 (SE 2.7) bpm"}, {"measurement": "increase of mean maximum heart rate over sub-maximal exercise with placebo", "setting": "[2]; with sub-maximal exercise", "value": 16.5, "unit": "beats per minute"}, {"measurement": "mean maximum heart rate increase", "setting": "[2]; with sub-maximal exercise (Discussion)", "value": "+40.2 (1.5) bpm"}, {"measurement": "frequency of dyspnea", "setting": "[3]", "value": 54, "unit": "%"}, {"measurement": "patients with severe adverse events", "setting": "[3]; AdenoSup: of 60 patients", "value": "no patient"}, {"measurement": "Adverse event: Chest Pain, patients", "setting": "[3]; RegEx (n = 39)", "value": 0}, {"measurement": "Adverse event: Pain in Jaw, patients", "setting": "[3]; RegEx (n = 39)", "value": 0}, {"measurement": "Adverse event: Throat tightness, patients", "setting": "[3]; RegEx (n = 39)", "value": 0}, {"measurement": "patients with at least one adverse event", "setting": "[3]; n=39", "value": 77, "unit": "%"}]}
{"smiles": "OCCN(CCO)c1nc(N2CCCCC2)c2nc(N(CCO)CCO)nc(N3CCCCC3)c2n1", "note": "[dipyridamole]", "values": [{"measurement": "half-life", "setting": "[5]", "value": "longer than that of adenosine"}]}
